Series [1] in a line: Rate of hydrolysis in porcine skin homogenate at 37° C. (HPLC or HPLC-MS). It is filed as in vitro ADME. The conditions noted are these: for half-life: pig; for reaction kinetics in porcine skin homogenate: in words. The method, then:
(§1) To assess whether the synthesised cilazapril prodrugs undergo enzymatic cleavage, metabolic studies were carried out in three well established incubation media for the investigation of transdermal administration.
Due to its similarities with human skin, in terms of enzyme activity and distribution, a porcine skin homogenate (25% w/w in PBS-buffer, 0.65 U/ml, 1.3 mg/ml (Bradford)) was used for the metabolic studies.
(§2) Incubation mixtures were prepared by adding a respective prodrug stock solution to porcine skin homogenate (PSH), human plasma and buffered porcine liver esterase (PLE), respectively.
(§3) All samples were incubated in a water bath at 37° C. After 72 h samples of the incubation mixtures (200 μl) were collected. To all samples 400 μl of ice-cold acetonitrile were added. After vortex mixing the samples were allowed to stand in a refrigerator for approx. 30 min. The samples were then centrifuged at 13000 rpm (13000 g) for 5 min. The supernatants were collected and stored at −78° C. until HPLC analysis. To 200 μl of each supernatant 400 μl of aqueous 0.05% trifluoroacetic acid were added prior to injection.
(§4) The kinetics of the hydrolysis of the cilazapril prodrugs in the different incubation media was analysed by HPLC or HPLC-MS.
(§5) The rate of hydrolysis of cilazapril, of some cilazapril prodrugs and cilazapril ethyl ester in porcine skin homogenate, human plasma and buffered porcine liver esterase at 37° C. are presented in Table 4.

The nature of series [2]: in vitro. It is filed as in vitro ADME. The procedure:
as §1
Human plasma (CPD plasma, 3.82 U/ml), which contains i.a. cholinesterase and acetylcholinesterase, was used as the second incubation media.
as §2, §3, §4, §5

Series [3] relates to porcine liver esterase. Description: Rate of hydrolysis in buffered porcine liver esterase at 37° C. (HPLC or HPLC-MS). It is filed as in vitro ADME. The conditions noted are these: for half-life: pig. The procedure: as §1
(§6) Buffered porcine liver esterase (suspension in 3.2 M (NH4)2SO4 solution, pH 8, 12 mg prot./ml (Biuret), 260 U/mg prot.) was chosen as the third incubation media, because porcine liver esterase mimics the carboxylesterase present in the human skin.
as §2, §3, §4, §5

The nature of series [4]: Metabolic studies in enzyme-containing incubation mixtures (porcine skin homogenate, human plasma, buffered porcine liver esterase), results in words. The class given is in vitro ADME. The note with it: 37° C.; for enzymatic cleavage / hydrolysis to cilazaprilate: incubation mixtures; for degradation / reaction kinetics of enzymatic hydrolysis: enzyme-containing incubation mixtures. The method, then:
as §1, §6, §2
All samples were incubated in a water bath at 37° C. […] To all samples 400 μl of ice-cold acetonitrile were added. After vortex mixing the samples were allowed to stand in a refrigerator for approx. 30 min. The samples were then centrifuged at 13000 rpm (13000 g) for 5 min. The supernatants were collected and stored at −78° C. until HPLC analysis. To 200 μl of each supernatant 400 μl of aqueous 0.05% trifluoroacetic acid were added prior to injection.
as §4

Series [5] in a line: Stability of 10% cilazapril in an acrylic adhesive (Durotak 87-4098, Henkel). The class given is physicochemical. The conditions noted are these: 10% in acrylic adhesive Durotak 87-4098. The text has this:
Instability in a semisolid dosage form is also a problem with cilazapril. Although cilazapril has a more rigid structure than other ACE-inhibitors and has no distinct tendency to intramolecular cyclisation, it presents stability problems in adhesive layers of transdermal therapeutic systems as shown in Table 1.

Series [6] can be described thus: Stability in transdermal therapeutic system (10% in BioPSA Hex 7-4302), extraction and HPLC. The conditions noted are these: TTS. The class given is physicochemical. The procedure: The stability of the prodrugs in the transdermal therapeutic system was determined after different storage times and temperatures by extraction of the transdermal therapeutic system with an organic solvent and subsequent analysis by HPLC.
The stability of the cilazapril prodrugs (1) and (2) in therapeutic transdermal systems was controlled at 25° C./60% relative humidity and compared with the cilazapril in a TTS having the same adhesive layer.

Series [7] can be described thus: Crystallization in the TTS. It is filed as physicochemical. The note with it: after 14 months. The source says: Moreover, the TTSs with the prodrugs (1), (2) and (6) were examined with regard to crystallization.
Series [8] is described as follows: In vitro skin permeation from TTS through human skin (two-compartment diffusion cell). The note with it: TTS on human skin, 32±1° C., 96 hours, FIG. 1. It is filed as in vitro ADME. The procedure: Furthermore the permeability of the prodrugs through the skin was measured by in vitro skin permeation. The in vitro skin permeation of the prodrugs (1), (2) and (6) and of cilazapril through human skin was evaluated using the TTS as prepared in any one of examples 8, 9, and 11.
The flux was determined by using a two-compartment diffusion cell with a section of human skin mounted between the cell halves. A TTS was adhered to one side of the skin and a drug-receiving medium was placed on the receptor-side of the cell. The apparatus was placed in a water bath maintained at 32±1° C. Samples of the receptor medium were collected over a period of 96 hours for HPLC analysis of drug concentration.

Where [9] appears, read: porcine skin homogenate, 37° C.
Setting [10] is: 9 months, 25° C./60% relative humidity.

Each structure is given as a SMILES string.

For `CCOC(=O)[C@H](CCc1ccccc1)N[C@H]1CCCN2CCC[C@@H](C(=O)OCC)N2C1=O` [cilazapril ethyl ester, reference compound], the “t1/2” value in series [1] (setting [9]) was determined as 0.35 h; in series [2] (human plasma, 37° C.), 11.9 h; in series [3] it was 0.69 h. The “enzymatic cleavage / hydrolysis to cilazaprilate” value (shortened to “enzymatic cleavage / hydrolysis”) in series [4] is “no hydrolysis to cilazaprilate was detectable”; in series [4] (listed as ethyl ester of cilazapril), “stable against enzymatic cleavage”.

With `CCOC(=O)[C@H](CCc1ccccc1)N[C@H]1CCCN2CCC[C@@H](C(=O)O)N2C1=O` [cilazapril, (1S,9S)-9-[[(1S)-1-ethoxycarbonyl-3-phenylpropyl]amino]octahydro-10-oxo-6H-pyridazino[1,2-a][1,2]diazepine-1-carboxylic acid, reference compound], the “assay [%]” value came to 98.1% in series [5] (0 months, uncontrolled); 98.0% in series [5] (3 weeks, 25° C./60% relative humidity); 95.9% in series [5] (3 weeks, 40° C./75% relative humidity); 91.9% in series [5] (7 months, 25° C./60% relative humidity); 80.4% in series [5] (7 months, 40° C./75% relative humidity); 99.8% in series [6] (0 months, uncontrolled). The “assay [%]” value in series [6] (setting [10]) was found to be 97.0%. For the same molecule, the half-life in series [1] (setting [9]) was 9.4 h; in series [2] (human plasma, 37° C., read-out: t1/2 (converted)) it was 88.8 h; in series [3], 3.3 h.

As for `CCOC(=O)OC(C)OC(=O)[C@@H]1CCCN2CCCC(N[C@@H](CCc3ccccc3)C(=O)OCC)C(=O)N12` (stereo partly drawn) [compound 1, (1S,9S)-1-(ethoxycarbonyloxy)ethyl 9-[[(1S)-1-ethoxycarbonyl-3-phenylpropyl]amino]-10-oxooctahydro-1H-pyridazino[1,2-a][1,2]diazepine-1-carboxylate], the “reaction kinetics in porcine skin homogenate” value in series [1] is “fast reaction kinetics”. The half-life is 0.43 h in series [1] (setting [9]); 0.58 h in series [2] (human, plasma); 0.67 h in series [3]. The “f50% (h), time by which 50% of total cilazaprilate has been formed” value (“f50% (h), time” for short) in series [2] (human) was 154 h. Moreover, the “degradation / reaction kinetics of enzymatic hydrolysis” value (shortened to “degradation / reaction kinetics”) in series [4] is “fast degradation”. In addition, in series [4], the “enzymatic cleavage / hydrolysis” value is “formation of cilazaprilate as the final metabolite”. In addition, the “assay [%]” value in series [6] (0 months, uncontrolled) came to 99.3%; in series [6] (setting [10]), 98.0%. For the same molecule, in series [7], the “crystallization in the TTS” value is listed as “none of the TTS showed crystallization”. Also, the “in vitro skin flux compared to the cilazapril TTS” value in series [8] is listed as “increase in in vitro skin flux”.

On to `CCOC(=O)[C@H](CCc1ccccc1)NC1CCCN2CCC[C@@H](C(=O)OC(C)OC(=O)OC3CCCCC3)N2C1=O` (stereo partly drawn) [compound 2, (1S,9S)-1-(cyclohexyloxycarbonyloxy)ethyl 9-[[(1S)-1-ethoxycarbonyl-3-phenylpropyl]amino]-10-oxooctahydro-1H-pyridazino[1,2-a][1,2]diazepine-1-carboxylate], for which the “reaction kinetics in porcine skin homogenate” value in series [1] is “fast reaction kinetics”. For the same molecule, the half-life is 1.4 h in series [1] (setting [9]); 3.2 h in series [2] (human, plasma); 4.2 h in series [3]. Further, the “f50% (h), time” value in series [2] (human) was 228 h. The “degradation / reaction kinetics” value in series [4] was “fast degradation”. Besides, in series [4], the “enzymatic cleavage / hydrolysis” value is recorded as “formation of cilazaprilate as the final metabolite”. Further, the “assay [%]” value amounted to 100.0% in series [6] (0 months, uncontrolled) and 98.3% in series [6] (setting [10]). The “crystallization in the TTS” value in series [7] was “none of the TTS showed crystallization”. For the same molecule, the “in vitro skin flux compared to the cilazapril TTS” value in series [8] is on record as “increase in in vitro skin flux”.

Take `CCOC(=O)[C@H](CCc1ccccc1)NC1CCCN2CCC[C@@H](C(=O)OC(C)OC(=O)OC(C)C)N2C1=O` (stereo partly drawn) [compound 3, (1S,9S)-1-(isopropyloxycarbonyloxy)ethyl 9-[[(1S)-1-ethoxycarbonyl-3-phenylpropyl]amino]-10-oxooctahydro-1H-pyridazino[1,2-a][1,2]diazepine-1-carboxylate]: the half-life in series [1] (setting [9]) is 1 h; in series [2] (human, plasma), 1.9 h; in series [3], 1.5 h. In series [2] (human), the “f50% (h), time” value stood at 108 h. For the same molecule, in series [4], the “degradation / reaction kinetics” value is given as “fast degradation”. Moreover, in series [4], the “enzymatic cleavage / hydrolysis” value is given as “formation of cilazaprilate as the final metabolite”.

Turning to `CCOC(=O)[C@H](CCc1ccccc1)NC1CCCN2CCC[C@@H](C(=O)OC(C)OC(C)=O)N2C1=O` (stereo partly drawn) [compound 4, (1S,9S)-1-(acetoxy)ethyl 9-[[(1S)-1-ethoxycarbonyl-3-phenylpropyl]amino]-10-oxooctahydro-1H-pyridazino[1,2-a][1,2]diazepine-1-carboxylate], the half-life is 0.5 h in series [1] (setting [9]); 0.68 h in series [2] (human, plasma); 0.63 h in series [3]. Also, the “f50% (h), time” value in series [2] (human) was 91.2 h. Moreover, the “degradation / reaction kinetics” value in series [4] is reported as “fast degradation”. Moreover, the “enzymatic cleavage / hydrolysis” value in series [4] is reported as “formation of cilazaprilate as the final metabolite”.

For `CCOC(=O)[C@H](CCc1ccccc1)NC1CCCN2CCC[C@@H](C(=O)OC(C)OC(=O)C(C)(C)C)N2C1=O` (stereo partly drawn) [compound 5, (1S,9S)-1-(2,2-dimethylpropanoyloxy)ethyl 9-[[(1S)-1-ethoxycarbonyl-3-phenylpropyl]amino]-10-oxooctahydro-1H-pyridazino[1,2-a][1,2]diazepine-1-carboxylate], the half-life in series [1] (setting [9]) was 1 h; in series [2] (human, plasma) it was 5.1 h; in series [3], 3.8 h. Further, in series [2] (human), the “f50% (h), time” value worked out at 33.6 h. In series [4], the “degradation / reaction kinetics” value was “fast degradation”. In addition, in series [4], the “enzymatic cleavage / hydrolysis” value was “formation of cilazaprilate as the final metabolite”.

Take `CCOC(=O)[C@H](CCc1ccccc1)N[C@H]1CCCN2CCC[C@@H](C(=O)OCCN3CCOCC3)N2C1=O` [compound 6, (1S,9S)-2-morpholinoethyl 9-[[(1S)-1-ethoxycarbonyl-3-phenylpropyl]amino]-10-oxooctahydro-1H-pyridazino[1,2-a][1,2]diazepine-1-carboxylate]: the “reaction kinetics in porcine skin homogenate” value in series [1] is “fast reaction kinetics”. The half-life is 0.5 h in series [1] (setting [9]); 1.3 h in series [2] (human, plasma); 0.95 h in series [3]. The “f50% (h), time” value in series [2] (human) was found to be 10.8 h. The “degradation / reaction kinetics” value in series [4] is recorded as “fast reaction kinetics”. Also, the “assay [%]” value in series [6] (0 months, uncontrolled) came out at 98.1%; in series [6] (setting [10]) it was 94.7%. Further, the “crystallization in the TTS” value in series [7] was “none of the TTS showed crystallization”. In series [8], the “in vitro skin flux compared to the cilazapril TTS” value is “increase in in vitro skin flux”.

Turning to `CCOC(=O)[C@H](CCc1ccccc1)NC1CCCN2CCC[C@@H](C(=O)OC(C)OC(=O)CN3CCOCC3)N2C1=O` (stereo partly drawn) [compound 7, (1S,9S)-1-(2-morpholinoacetoxy)ethyl 9-[[(1S)-1-ethoxycarbonyl-3-phenylpropyl]amino]-10-oxooctahydro-1H-pyridazino[1,2-a][1,2]diazepine-1-carboxylate], the half-life in series [1] (setting [9]) is 0.33 h; in series [2] (human, plasma) it was 0.83 h; in series [3] it was 0.77 h. In addition, the “f50% (h), time” value in series [2] (human) was 132 h. Also, in series [4], the “degradation / reaction kinetics” value was “fast reaction kinetics”.

The values above are taken from patent publication US8785431B2, “Prodrugs of (1S,9S)-9-[[(1S)-1-carboxy-3-phenylpropyl]amino]octahydro-10-oxo-6H-pyridazino[1,2-a][1,2]diazepine-1-carboxylic acid and their use in transdermal therapeutic systems” (Hexal AG, priority 2011, dated 2014).
